Assay results reported in ChEMBL document CHEMBL3525960, “Role of catechol-O-methyltransferase in the disposition of luteolin in rats” (Drug Metab Dispos, 2011).

Key:
[1] = system: Small intestine; experiment: Drug metabolism in Sprague-Dawley rat small intestine homogenate assessed as 3'-O-methylated luteolin at 20 uM after 20 to 60 mins in presence of COMT inhibitor entacapone; format: ADME, tissue-based; conditions: tissue homogenate
[2] = system: Lung; experiment: Drug metabolism in Sprague-Dawley rat lung homogenate assessed as 4'-O-methylated luteolin at 20 uM after 20 to 60 mins; format: ADME, tissue-based; conditions: tissue homogenate
[3] = Drug absorption in human Caco2 cells; format: ADME, cell-based; conditions: caco-2
[4] = Drug metabolism in Sprague-Dawley rat erythrocytes homogenate assessed as 3'-O-methylated luteolin at 20 uM after 20 to 60 mins in presence of COMT inhibitor entacapone; format: ADME, cell-based; conditions: erythrocyte
[5] = system: Liver; experiment: Drug metabolism in Sprague-Dawley rat liver homogenate assessed as 3'-O-methylated luteolin at 20 uM after 20 to 60 mins; format: ADME, tissue-based; conditions: tissue homogenate
[6] = system: Kidney; experiment: Drug metabolism in Sprague-Dawley rat kidney homogenate assessed as 3'-O-methylated luteolin at 20 uM after 20 to 60 mins; format: ADME, tissue-based; conditions: tissue homogenate
[7] = Mean residence time (0 to t) in Sprague-Dawley rat at 6.5 mg/kg, iv; format: ADME, organism-based; parameters: dose 6.5 mg/kg, route intravenous; conditions: in vivo
[8] = system: Kidney; experiment: Drug metabolism in Sprague-Dawley rat kidney homogenate assessed as 4'-O-methylated luteolin at 20 uM after 20 to 60 mins in presence of COMT inhibitor entacapone; format: ADME, tissue-based; conditions: tissue homogenate
[9] = AUC (0 to t) in Sprague-Dawley rat at 6.5 mg/kg, iv; format: ADME, organism-based; parameters: dose 6.5 mg/kg, route intravenous; conditions: plasma
[10] = Clearance in Sprague-Dawley rat at 6.5 mg/kg, iv; format: ADME, organism-based; parameters: dose 6.5 mg/kg, route intravenous; conditions: in vivo
[11] = system: Lung; experiment: Drug metabolism in Sprague-Dawley rat lung homogenate assessed as 4'-O-methylated luteolin at 20 uM after 20 to 60 mins in presence of COMT inhibitor entacapone; format: ADME, tissue-based; conditions: tissue homogenate
[12] = Mean residence time (0 to infinity) in Sprague-Dawley rat at 6.5 mg/kg, iv; format: ADME, organism-based; parameters: dose 6.5 mg/kg, route intravenous; conditions: in vivo
[13] = system: Lung; experiment: Drug metabolism in Sprague-Dawley rat lung homogenate assessed as 3'-O-methylated luteolin at 20 uM after 20 to 60 mins; format: ADME, tissue-based; conditions: tissue homogenate
[14] = system: Lung; experiment: Drug metabolism in Sprague-Dawley rat lung homogenate assessed as 3'-O-methylated luteolin at 20 uM after 20 to 60 mins in presence of COMT inhibitor entacapone; format: ADME, tissue-based; conditions: tissue homogenate
[15] = AUC (0 to t) in Sprague-Dawley rat at 6.5 mg/kg, iv co-treated with COMT inhibitor entacapone; format: ADME, organism-based; parameters: dose 6.5 mg/kg, route intravenous; conditions: plasma
[16] = AUC (0 to infinity) in Sprague-Dawley rat at 6.5 mg/kg, iv co-treated with COMT inhibitor entacapone; format: ADME, organism-based; parameters: time infinity, dose 6.5 mg/kg, route intravenous; conditions: plasma
[17] = Drug metabolism in Sprague-Dawley rat erythrocytes homogenate assessed as 3'-O-methylated luteolin at 20 uM after 20 to 60 mins; format: ADME, cell-based; conditions: erythrocyte
[18] = Drug excretion in Sprague-Dawley rat urine at 6.5 mg/kg, iv after 24 hrs; format: ADME, organism-based; parameters: dose 6.5 mg/kg, route intravenous; conditions: read-out: Drug excretion
[19] = Clearance in Sprague-Dawley rat at 6.5 mg/kg, iv co-treated with COMT inhibitor entacapone; format: ADME, organism-based; parameters: dose 6.5 mg/kg, route intravenous; conditions: in vivo
[20] = Half life in Sprague-Dawley rat at 6.5 mg/kg, iv; format: ADME, organism-based; parameters: dose 6.5 mg/kg, route intravenous; conditions: in vivo
[21] = Drug metabolism in Sprague-Dawley rat erythrocytes homogenate assessed as 4'-O-methylated luteolin at 20 uM after 20 to 60 mins in presence of COMT inhibitor entacapone; format: ADME, cell-based; conditions: erythrocyte
[22] = system: Liver; experiment: Drug metabolism in Sprague-Dawley rat liver homogenate assessed as 4'-O-methylated luteolin at 20 uM after 20 to 60 mins in presence of COMT inhibitor entacapone; format: ADME, tissue-based; conditions: tissue homogenate
[23] = system: Kidney; experiment: Drug metabolism in Sprague-Dawley rat kidney homogenate assessed as 4'-O-methylated luteolin at 20 uM after 20 to 60 mins; format: ADME, tissue-based; conditions: tissue homogenate
[24] = Apparent permeability in human Caco2 cells; format: ADME, cell-based; conditions: caco-2
[25] = Volume of distribution in Sprague-Dawley rat at 6.5 mg/kg, iv; format: ADME, organism-based; parameters: dose 6.5 mg/kg, route intravenous; conditions: in vivo
[26] = AUC (0 to infinity) in Sprague-Dawley rat at 6.5 mg/kg, iv; format: ADME, organism-based; parameters: time infinity, dose 6.5 mg/kg, route intravenous; conditions: plasma
[27] = system: Small intestine; experiment: Drug metabolism in Sprague-Dawley rat small intestine homogenate assessed as 3'-O-methylated luteolin at 20 uM after 20 to 60 mins; format: ADME, tissue-based; conditions: tissue homogenate
[28] = system: Small intestine; experiment: Drug metabolism in Sprague-Dawley rat small intestine homogenate assessed as 4'-O-methylated luteolin at 20 uM after 20 to 60 mins in presence of COMT inhibitor entacapone; format: ADME, tissue-based; conditions: tissue homogenate
[29] = system: Liver; experiment: Drug metabolism in Sprague-Dawley rat liver homogenate assessed as 3'-O-methylated luteolin at 20 uM after 20 to 60 mins in presence of COMT inhibitor entacapone; format: ADME, tissue-based; conditions: tissue homogenate
[30] = system: Small intestine; experiment: Drug metabolism in Sprague-Dawley rat small intestine homogenate assessed as 4'-O-methylated luteolin at 20 uM after 20 to 60 mins; format: ADME, tissue-based; conditions: tissue homogenate
[31] = Mean residence time (0 to infinity) in Sprague-Dawley rat at 6.5 mg/kg, iv co-treated with COMT inhibitor entacapone; format: ADME, organism-based; parameters: dose 6.5 mg/kg, route intravenous; conditions: in vivo
[32] = Drug excretion in Sprague-Dawley rat urine at 6.5 mg/kg, iv after 24 hrs co-treated with COMT inhibitor entacapone; format: ADME, organism-based; parameters: dose 6.5 mg/kg, route intravenous; conditions: read-out: Drug excretion
[33] = system: Liver; experiment: Drug metabolism in Sprague-Dawley rat liver homogenate assessed as 4'-O-methylated luteolin at 20 uM after 20 to 60 mins; format: ADME, tissue-based; conditions: tissue homogenate
[34] = Mean residence time (0 to t) in Sprague-Dawley rat at 6.5 mg/kg, iv co-treated with COMT inhibitor entacapone; format: ADME, organism-based; parameters: dose 6.5 mg/kg, route intravenous; conditions: in vivo
[35] = system: Kidney; experiment: Drug metabolism in Sprague-Dawley rat kidney homogenate assessed as 3'-O-methylated luteolin at 20 uM after 20 to 60 mins in presence of COMT inhibitor entacapone; format: ADME, tissue-based; conditions: tissue homogenate
[36] = Half life in Sprague-Dawley rat at 6.5 mg/kg, iv co-treated with COMT inhibitor entacapone; format: ADME, organism-based; parameters: dose 6.5 mg/kg, route intravenous; conditions: in vivo
[37] = Drug metabolism in Sprague-Dawley rat erythrocytes homogenate assessed as 4'-O-methylated luteolin at 20 uM after 20 to 60 mins; format: ADME, cell-based; conditions: erythrocyte
[38] = Drug recovery in Sprague-Dawley rat urine assessed as retention time at 6.5 mg/kg, iv by reverse-phase HPLC method; format: ADME, organism-based; parameters: dose 6.5 mg/kg, route intravenous; conditions: in vivo
[39] = Volume of distribution in Sprague-Dawley rat at 6.5 mg/kg, iv co-treated with COMT inhibitor entacapone; format: ADME, organism-based; parameters: dose 6.5 mg/kg, route intravenous; conditions: in vivo

For `O=c1cc(-c2ccc(O)c(O)c2)oc2cc(O)cc(O)c12` [LUTEOLIN], the Drug metabolism [1] was “metabolite_not_detected”, the Drug metabolism [2] was “metabolite_detected” and the Drug absorption [3] was 20%. For the same compound, the Drug metabolism [4] was “metabolite_not_detected”, the Drug metabolism [5] was “metabolite_detected” and the Drug metabolism [6] was “metabolite_detected”. For the same compound, the MRT last [7] was 1.41 h, the Drug metabolism [8] was “metabolite_not_detected” and the AUC(0-t) [9] was 7600 ng·h/mL. The clearance [10] was 13.4 mL/min/kg, the Drug metabolism [11] was “metabolite_not_detected” and the MRT inf [12] was 2.32 h. The Drug metabolism [13] was “metabolite_detected”, the Drug metabolism [14] was “metabolite_not_detected” and the AUC(0-t) [15] was 11400 ng·h/mL. For the same compound, the AUC(0-inf) [16] was 12500 ng·h/mL, the Drug metabolism [17] was “metabolite_detected” and the dose excreted at 24 h [18] was 5.12%. The clearance [19] was 8.95 mL/min/kg, the half-life [20] was 3.2 h and the Drug metabolism [21] was “metabolite_not_detected”. The Drug metabolism [22] was “metabolite_not_detected”, the Drug metabolism [23] was “metabolite_detected” and the Papp [24] was 5.8 ×10⁻⁶ cm/s. The Vd [25] was 3.74 L/kg, the AUC(0-inf) [26] was 8180 ng·h/mL and the Drug metabolism [27] was “metabolite_detected”. For the same compound, the Drug metabolism [28] was “metabolite_not_detected”, the Drug metabolism [29] was “metabolite_not_detected” and the Drug metabolism [30] was “metabolite_detected”. The MRT inf [31] was 2.68 h, the dose excreted at 24 h [32] was 7.32% and the Drug metabolism [33] was “metabolite_detected”. For the same compound, the MRT last [34] was 1.65 h, the Drug metabolism [35] was “metabolite_not_detected” and the half-life [36] was 3.31 h. For the same compound, the Drug metabolism [37] was “metabolite_detected”, the Retention_time [38] was 15.46 min and the Vd [39] was 2.57 L/kg.
